A value given as a limit tells only on which side of the number the result lay.

Experiment [1] relates to Botrytis cinerea. The experiment in a line: Botrytis cinerea test on tomato, preventive, greenhouse. It counts as in vivo. The conditions noted are these: preventive spray on bean/chili plants (heading: tomato), inoculated one day after treatment, read-out: control (efficacy, disease severity) compared to the untreated check.
For experiment [2], the system named is Phakopsora pachyrhizi. Description: Phakopsora pachyrhizi test on soybean, preventive, greenhouse. It counts as in vivo. The settings on record: preventive spray on soybean, inoculated one day after treatment, read-out: control (efficacy, disease severity) compared to the untreated check. The procedure: The respective compound was dissolved in 2% dimethyl sulfoxide/acetone and then mixed with water containing emulsifier to the calibrated spray volume of 30 mL. Each spray solution was poured into a spray bottle for further application.
To test the preventive activity of a compound, healthy young soybean plants, raised in the greenhouse, were sprayed with the active compound preparation at the stated application rate inside the spray cabinets using hollow cone nozzles. One day after treatment, the plants were inoculated with a conidial suspension containing 2×10^5 Phakopsora pachyrhizi inoculum. The inoculated plants were then kept in a greenhouse chamber at 22-24° C. temperature and 80-90% relative humidity for disease expression.

Experiment [3] concerns Phytophthora infestans. The experiment in a line: microbe, parasite or virus in culture. It counts as cell-based. The settings on record: 168 h, read-out: control compared to the untreated check.
For experiment [4], the system named is Parastagonospora nodorum. The experiment in a line: Parastagonospora nodorum (PARANO) spore growth inhibition in liquid medium, 96-well microtiter plate, OD 600. It is filed as cell-based. The conditions noted are these: spore suspension in PDB liquid medium, 18° C., 5-6 days, OD at 600, read-out: control compared to the untreated check. The procedure: Potato dextrose (PDB) liquid medium (Difco) containing a PARANO (10^5 spores/ml) spore suspension was prepared. For the inhibition assay, each test compound was solved in dimethyl sulfoxide. 100 μl of the test compound in media-solution was added to a 96-well microtiter plate, consequently, the same volume (100 μl) of spore suspension was added to the well making the final test concentrations and the plate was incubated at 18° C. for 5-6 days. The growth inhibition was evaluated by measuring the OD at 600. Percent inhibition was calculated with the below formula: […]

The subject of experiment [5] is Botrytis cinerea. The experiment in a line: Botrytis cinerea liq. (BOTRCI) spore growth inhibition in liquid medium, 96-well microtiter plate, OD 405 nm. It counts as cell-based. The settings on record: spore suspension in YBA liquid medium, 22° C., 5-6 days, OD at 405 nm, read-out: control compared to the untreated check. The procedure: Yeast bacterial peptone and sodium acetate (YBA) liquid medium containing a BOTRCI (10^4 spores/ml) spore suspension was prepared. For the inhibition assay, each test compound was solved in dimethyl sulfoxide. 100 μl of the test compound in media-solution was added to a 96-well microtiter plate, consequently, the same volume (100 μl) of spore suspension was added to the well making the final test concentrations and the plate was incubated at 22° C. for 5-6 days. The growth inhibition was evaluated by measuring the OD at 405 nm. Percent inhibition was calculated with the below formula:
Where T=treatment, C=control, and B=blank

The subject of experiment [6] is Colletotrichum capsici. The experiment in a line: Colletotrichum capsici (anthracnose) mycelial radial growth on potato dextrose agar. It counts as cell-based. The settings on record: Colletotrichum truncatum, 168 h, 25° C., seven days, read-out: control compared to the untreated check. As for the experimental part:
The compounds were dissolved in 0.3% dimethyl sulfoxide and then added to potato dextrose agar medium just prior to dispensing it into petri dishes. 5 mL medium, with the compound in the desired concentration, was dispensed into 60 mm sterile petri-plates. After solidification, each plate was seeded with a 5 mm size mycelial disc taken from the periphery of an actively growing virulent culture plate. The plates were incubated in growth chambers at 25° C. temperature and 60% relative humidity for seven days and the radial growth was measured and compared to the one of the untreated control.

Experiment [7] relates to Pyricularia oryzae. Description: microbe, parasite or virus in culture. It counts as cell-based. The conditions noted are these: 168 h, read-out: control compared to the untreated check.

In the case of `Cn1ccc2cc(C(=O)NC(C)(C)Cc3ccc(Br)cc3)cnc21` [Compound 61, N-(1-(4-bromophenyl)-2-methylpropan-2-yl)-1-methyl-1H-pyrrolo[2,3-b]pyridine-5-carboxamide], the pest or weed control at 500 ppm in experiment [1] was ≥ 70%.

For `Cc1nc2[nH]ccc2cc1C(=O)NC(C)(Cc1ccccc1)CC(C)C` (stereo not shown) [Compound 96, N-(2,4-dimethyl-1-phenylpentan-2-yl)-6-methyl-1H-pyrrolo[2,3-b]pyridine-5-carboxamide], the pest or weed control at 500 ppm in experiment [2] and in experiment [1] was ≥ 70% in each case.

As for `Cn1cc(Br)c2cc(C(=O)NC(C)(C)COCc3ccccc3C#N)cnc21` [Compound 196], the inhibition of growth at 300 ppm in experiment [3] is ≥ 70%.

`CCC(O)(CC)C(NC(=O)c1cnc2c(ccn2C)c1)c1ccccc1` (stereo not shown) [Compound 120, N-(2-ethyl-2-hydroxy-1-phenylbutyl)-1-methyl-1H-pyrrolo[2,3-b]pyridine-5-carboxamide]: the pest or weed control at 500 ppm in experiment [1] was ≥ 70%.

As for `CC(C)(COC(=O)c1ccccc1C(F)(F)F)NC(=O)c1cnc2c(c1)CCCC2` [Compound 150, 2-methyl-2-(5,6,7,8-tetrahydroquinoline-3-carboxamido)propyl 2-(trifluoromethyl)benzoate], the pest or weed control at 500 ppm in experiment [2] and in experiment [1] was ≥ 70% each time. In addition, in experiment [4], the inhibition of growth at 300 ppm is ≥ 70%.

On to `CC(c1ccccc1)C(C)(C)NC(=O)c1cnc2c(ccn2C)c1` (stereo not shown) [Compound 8, 1-methyl-N-(2-methyl-3-phenylbutan-2-yl)-1H-pyrrolo[2,3-b] pyridine-5-carboxamide], for which the inhibition of growth at 300 ppm in experiment [5], in experiment [4], in experiment [6] and in experiment [7] was ≥ 70% each time.

For the compound `CC(C)(COc1ccccn1)NC(=O)c1cc2c(nc1Cl)CCC2` [Compound 242, 2-chloro-N-(2-methyl-1-(pyridin-2-yloxy)propan-2-yl)-6,7-dihydro-5H-cyclopenta[b]pyridine-3-carboxamide], the inhibition of growth at 300 ppm in experiment [5] was ≥ 70%.

For `COc1cc(C(=O)OCC(C)(C)NC(=O)c2cnc3ccsc3c2)ccc1F` [Compound 124, 2-methyl-2-(thieno[3,2-b]pyridine-6-carboxamido)propyl 4-fluoro-3-methoxybenzoate], the inhibition of growth at 300 ppm in experiment [4] and in experiment [7] was ≥ 70% in each case. Also, the pest or weed control at 500 ppm in experiment [1] is ≥ 70%.

For `Cn1cc(Br)c2cc(C(=O)NC(C)(C)Cc3ccccc3)cnc21` [Compound 46], the pest or weed control at 500 ppm in experiment [2] and in experiment [1] was ≥ 70% each time. The inhibition of growth at 300 ppm in experiment [7] was ≥ 70%.

`Cn1cc(Br)c2cc(C(=O)NC(C)(C)Cc3ccccc3Cl)cnc21` [Compound 84, 3-bromo-N-(1-(2-chlorophenyl)-2-methylpropan-2-yl)-1-methyl-1H-pyrrolo[2,3-b]pyridine-5-carboxamide]: the pest or weed control at 500 ppm in experiment [2] and in experiment [1] was ≥ 70% in each case.

As to `Cn1cc(F)c2cc(C(=O)NC(C)(C)Cc3ccc(Cl)cc3)cnc21` [Compound 66, N-(1-(4-chlorophenyl)-2-methylpropan-2-yl)-3-fluoro-1-methyl-1H-pyrrolo[2,3-b]pyridine-5-carboxamide], the pest or weed control at 500 ppm in experiment [2] and in experiment [1] was ≥ 70% each time.

As to `Cc1nc2[nH]ccc2cc1C(=O)NC1(Cc2ccccc2)CC1` [Compound 97, N-(1-benzylcyclopropyl)-6-methyl-1H-pyrrolo[2,3-b]pyridine-5-carboxamide], the pest or weed control at 500 ppm in experiment [2] and in experiment [1] was ≥ 70% in each case.

On to `Cn1cc(C2CC2)c2cc(C(=O)NC(C)(C)Cc3ccccc3)cnc21` [Compound 54, 3-cyclopropyl-1-methyl-N-(2-methyl-1-phenylpropan-2-yl)-1H-pyrrolo[2,3-b] pyridine-5-carboxamide], for which the pest or weed control at 500 ppm in experiment [2] and in experiment [1] was ≥ 70% each time.

Consider `Cn1cc(Cl)c2cc(C(=O)NC(C)(C)COc3ccc(F)cn3)cnc21` [Compound 221, 3-chloro-N-(1-((5-fluoropyridin-2-yl)oxy)-2-methylpropan-2-yl)-1-methyl-1H-pyrrolo[2,3-b]pyridine-5-carboxamide], for which, in experiment [5], the inhibition of growth at 300 ppm was ≥ 70%.

In the case of `CON(C(=O)c1cnc2c(ccn2C)c1)C(C)Cc1ccccc1F` (stereo not shown) [Compound 239, N-(1-(2-fluorophenyl)propan-2-yl)-N-methoxy-1-methyl-1H-pyrrolo[2,3-b]pyridine-5-carboxamide], the inhibition of growth at 300 ppm in experiment [5], in experiment [4] and in experiment [7] was ≥ 70% in each case.

As to `Cn1cc(Br)c2cc(C(=O)NC(C)(C)COCc3cc(F)ccc3Cl)cnc21` [Compound 232, 3-bromo-N-(1-((2-chloro-5-fluorobenzyl)oxy)-2-methylpropan-2-yl)-1-methyl-1H-pyrrolo[2,3-b]pyridine-5-carboxamide], the inhibition of growth at 300 ppm in experiment [5] and in experiment [4] was ≥ 70% in each case.

For the compound `COc1nc2c(cc1C(=O)NCC1(c3ccccc3)CC1)CCC2` [Compound 247, 2-methoxy-N-((1-phenylcyclopropyl)methyl)-6,7-dihydro-5H-cyclopenta[b]pyridine-3-carboxamide], the inhibition of growth at 300 ppm in experiment [5], in experiment [4] and in experiment [6] was ≥ 70% throughout.

Regarding `C=C(C)CC(C)(COc1ccc(F)cc1)NC(=O)c1cnc2ccsc2c1` (stereo not shown) [Compound 122, N-(1-(4-fluorophenoxy)-2,4-dimethylpent-4-en-2-yl)thieno[3,2-b] pyridine-6-carboxamide], the pest or weed control at 500 ppm in experiment [1] is ≥ 70%. Also, in experiment [6], the inhibition of growth at 300 ppm is ≥ 70%.

Take `Cn1ccc2cc(C(=O)NC3Cc4ccccc4C3)cnc21` [Compound 76, N-(2,3-dihydro-1H-inden-2-yl)-1-methyl-1H-pyrrolo[2,3-b] pyridine-5-carboxamide]: the pest or weed control at 500 ppm in experiment [2] and in experiment [1] was ≥ 70% in each case.

For `CC(C)(COc1ccnc(Cl)c1)NC(=O)c1cc2c(nc1Cl)CCC2` [Compound 244, 2-chloro-N-(1-((2-chloropyridin-4-yl)oxy)-2-methylpropan-2-yl)-6,7-dihydro-5H-cyclopenta[b]pyridine-3-carboxamide], the inhibition of growth at 300 ppm in experiment [5] and in experiment [4] was ≥ 70% in each case.

Turning to `Cn1ccc2cc(C(=O)NC(C)(C)Cc3ccc(F)cc3)cnc21` [Compound 74, N-(1-(4-fluorophenyl)-2-methylpropan-2-yl)-1-methyl-1H-pyrrolo[2,3-b]pyridine-5-carboxamide], in experiment [1], the pest or weed control at 500 ppm is ≥ 70%.

`Cn1cc(Cl)c2cc(C(=O)NC(C)(C)COc3ccccn3)cnc21` [Compound 219, 3-chloro-1-methyl-N-(2-methyl-1-(pyridin-2-yloxy)propan-2-yl)-1H-pyrrolo[2,3-b] pyridine-5-carboxamide]: the inhibition of growth at 300 ppm in experiment [5] and in experiment [7] was ≥ 70% in each case.

As for `Cc1nc2c(ccn2C)cc1C(=O)NC(C)(C)C(C)c1ccccc1F` (stereo not shown) [Compound 35, N-(3-(2-fluorophenyl)-2-methylbutan-2-yl)-1,6-dimethyl-1H-pyrrolo[2,3-b]pyridine-5-carboxamide], the pest or weed control at 500 ppm in experiment [2] and in experiment [1] was ≥ 70% in each case.

With `Cn1ccc2cc(C(=O)NC(C)(C)Cc3ccc(F)cc3F)cnc21` [Compound 20], the inhibition of growth at 300 ppm in experiment [5], in experiment [6] and in experiment [7] was ≥ 70% throughout.

For `CN(C(=O)c1cnc2c(c1)c(C1CC1)cn2C)C(C)(C)Cc1ccccc1` [Compound 57, 3-cyclopropyl-N,1-dimethyl-N-(2-methyl-1-phenylpropan-2-yl)-1H-pyrrolo[2,3-b] pyridine-5-carboxamide], the pest or weed control at 500 ppm in experiment [2] and in experiment [1] was ≥ 70% each time.

Source of the values: patent publication US20250049036A1 (priority 2021, published 2025).
